IC50, ED90 and MTD data for 4 compounds are collected here from patent publication EP1261587B1, “STILBENE DERIVATIVES, THEIR PREPARATION AND THEIR USE AS ANTIVIRAL AGENTS” (priority 1999, dated 2001).

In series [1] the target is T1, Tat-TAR complex (recombinant Tat, synthetic TAR duplex) (Human immunodeficiency virus type 1 group M subtype B, UniProt P04608).
T1 construct: purchased Medical Research Council (MRC), Cambridge, U.K
The series can be described thus: competition Tat-TAR gel-shift assay. The series is classed as binding, HIV-1. An excerpt:
The in vitro inhibition of the interaction between Tat and TAR can be shown by a competition Tat-TAR gel-shift assay. Through binding of the protein (recombinant Tat, Medical Research Council (MRC), Cambridge, U.K. - for the sequence of recombinant Tat see Churcher et al., J. Mol. Biol. 230, 90-110 (1993)) to the RNA (synthetic TAR duplex, Genset, Paris, France; for the sequence see Hamy et al., J. Mol. Biol. 230, 111-123 (1993)), the overall size and the charge/weight ratio of the formed duplex are changed, so that electrophoretic migration through a native polyacrylamide gel is affected. By radioactive labelling of the RNA and subsequent autoradiography, free RNA and complexes can be discriminated based on their relative positions in the gel (Hamy et al., J. Mol. Biol. 230, 111-123 (1993)). If the binding reaction with a test substance is able to prevent the protein binding to the radiolabelled RNA, this competition for binding can be visualized on the autoradiography as a decreased intensity of the retarded band. In more detail, compounds of the formula I are tested as follows:
The 14-mer strand of duplex TAR-RNA is labelled in the presence of T4 polynucleotide kinase (New England Biolabs, Beverly, MA, USA) using [γ-^32P]ATP (Amersham, Little Chalfont, UK), 10 mM DTT (=dithiothreitol), 50 mM Tris.HCI (pH 7.4, Tris = Tris(hydroxymethyl)aminomethane), 0.77 % (w/v) spermidine (Fluka, Switzerland) and 10 units T4 polynucleotide kinase incubated at 37 °C for 20 min. After heat-treatment (65 °C, 10 min) for enzyme inactivation, the unincorporated [γ-^32P]ATP is removed by chromatography through a Sephadex NAP-10 column (Pharmacia, Uppsala, Sweden) equilibrated with water. Prior to the in-vitro-binding reaction, the labelled 14-mer is annealed to 1.5 equivalents of unlabelled 17-mer by heating to 90 C for 3 min, followed by slow cooling down to 0 °C. […] The CD50-values that are obtained are preferably in the range of from 10 x 10^-9 to 10 x 10^-6 M, more preferably from 10 x 10^-9 to 0.5 x 10^-6 M.

For another series, the system named is HIV-1/LAV.04. The series can be described thus: inhibition of viral growth of HIV-1 in PBLs (RT activity in cell supernatants). The series is classed as cell-based. The conditions noted are these: concentration at which 90 % reduction of RT activity versus untreated control is observed; human PBLs infected with HIV-1/LAV.04.
Series [2] can be described thus: maximal tolerated dose (MTD) determination in mice. The series is classed as in vivo. Here is the method: After single application of up to 50 mg/kg by i.v. administration to mice no signs of overt toxicity are observed during 8 days of observation. In detail, the assay is conducted as follows: The assay is designed for the determination of the maximal tolerated dose (MTD) For the MTD determination, three six to eight week old female Balb/c AnCbif Tif mice (Ciba animal farm, Sisseln, Switzerland) per dose group are treated once i.v. The dosage is increased until toxic effects are observed within 7 days after drug treatment. After 7 days the animals are euthanasized and organs are macroscopically inspected. The MTD is the dose where all three animals still survive. For example, when the compounds of examples 2 or 4, trans-5-(Acetoacetylamino)-2-[2-{4-(4,5-dihydro-3-methyl-5-oxo-1H-pyrazol-1-yl)-2-sulfophenyl]ethenyl]-benzenesulfonic acid or N,N'-Bis(trans-4-{2-[4-(3-methyl-5-oxo-4,5-dihydro-1H.-pyrazol-1-yl)-2-sulfo-phenyl]-vinyl}-2-sulfophenyl)-[1,3,5]triazine-2,4,6-triamine, are dissolved in sterile sodium chloride solution 0.9%, the MTD after i.v. administration is > 50 mg/kg.

The mark [3] stands for this setting: concentration giving 50 % decrease in intensity of the retarded band (Tat-TAR complex), 20 nM recombinant Tat, read-out: CD50 (the source's name).

Counter-ions that a name gives are not always drawn. Like-named read-outs stand apart in the source and are kept apart here. A value given as a limit tells only on which side of the number the result lay.

T1 sequence (P04608 whole entry, one chain of several): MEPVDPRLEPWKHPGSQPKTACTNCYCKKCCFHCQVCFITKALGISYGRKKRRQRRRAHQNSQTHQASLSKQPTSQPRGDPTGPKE
Method for HIV-1/LAV.04: In brief, Peripheral Blood Mononuclear Lymphocytes (PBLs) are obtained from the blood of healthy volunteers by leukapheresis. Cells (1 x 10^6/ml) are cultured for 2 days in RPMI-1640 (Gibco), supplemented with 10 % heat-inactivated fetal calf serum (Gibco), 50 mg/ml streptomycin, 50 U/ml penicillin (Amimed), 2 nM glutamine and 10 mM hepes buffer (Gibco). Stimulated lymphocytes are obtained by culturing in the presence of PHA (0.25 mg/ml; Wellcome diagnostics, Templehill, Dartford, England). PHA-lymphocyte stimulation is confirmed by the increase in cell size (Scattergram, FACS analysis). Cells are exposed to HIV-1/LAV.04 (see Barre-Sinoussi et al., Science 220, 868-871 (1983)) for 6 h. […] Medium is changed every 3 days and activity of viral reverse transcriptase (RT activity) is determined in cell supernatants, serving as a measure for the presence of virus and thus of progression of infection according to known procedures (see Willey et al., J. Virol. 62, 353-8 (1991) for details of the method). In brief, RT determination is possible as follows: The RT activity is determined in 50mM Tris (α,α,α--tris(hydroxymethyl)methylamine, ultra pure, Merck, Federal Republic of Germany) pH 7.8; 75mM of KCl, 2mM of dithiothreitol, 5mM of MgCl2; 0.05% Nonidet P-40 (detergent; Sigma, Switzerland); 50 µg/ml of polyadenylic acid (Pharmacia, Sweden); and 1.6 µg/ml of dT(12-18) (Sigma, Switzerland). […]

Turning to `CC(=O)CC(=O)Nc1ccc(/C=C/c2ccc(N3N=C(C)CC3=O)cc2S(=O)(=O)O)c(S(=O)(=O)O)c1` [Example 2, trans-5-(Acetoacetylamino)-2-[2-{4-(4,5-dihydro-3-methyl-5-oxo-1H-pyrazol-1-yl)-2-sulfophenyl}ethenyl]-benzenesulfonic acid], in series [1], the IC50 was found to be 20 nM. This compound also registered an ED90 in the series on HIV-1/LAV.04 of 30000 nM. In addition, in series [2] (female, Balb/c AnCbif Tif, mouse, in vivo, iv), the MTD at 7 days is greater than 50 mg/kg.
Turning to `CC1=NN(c2ccc(/C=C/c3ccc(Nc4nc(Cl)nc(Nc5ccc(/C=C/c6ccc(N7N=C(C)CC7=O)cc6S(=O)(=O)O)cc5S(=O)(=O)O)n4)c(S(=O)(=O)O)c3)c(S(=O)(=O)O)c2)C(=O)C1` [Example 3, N,N'-Bis(trans-4-{2-[4-(3-methyl-5-oxo-4,5-dihydro-1.H.-pyrazol-1-yl)-2-sulfophenyl]-vinyl}-2-sulfophenyl)-2-chloro-[1,3,5]triazine-4,6-diamine], the IC50 in series [1] (setting [3]) amounted to 50 nM. This compound also yielded an ED90 with HIV-1/LAV.04 of 20000 nM.
In the case of `CC1=NN(c2ccc(/C=C/c3ccc(Nc4nc(N)nc(Nc5ccc(/C=C/c6ccc(N7N=C(C)CC7=O)cc6S(=O)(=O)O)cc5S(=O)(=O)O)n4)c(S(=O)(=O)O)c3)c(S(=O)(=O)O)c2)C(=O)C1` [Example 4, N,N'-Bis(trans-4-{2-[4-(3-methyl-5-oxo-4,5-dihydro-1.H.-pyrazol-1-yl)-2-sulfophenyl]-vinyl}-2-sulfophenyl)-[1,3,5]triazine-2,4,6-triamine], the IC50 in series [1] (setting [3]) is 50 nM. Further, the maximum tolerated dose (MTD) in series [2] (single i.v. administration, female mice, dissolved in sterile sodium chloride solution 0.9%, dose where all three animals still survive, 10080 min) is listed as greater than 50 mg/kg.
For `CC1=NN(c2ccc(/C=C/c3ccc(NC(=O)Nc4ccc(/C=C/c5ccc(N6N=C(C)C(N=Nc7ccccc7C(=O)O)C6=O)cc5S(=O)(=O)O)cc4S(=O)(=O)O)c(S(=O)(=O)O)c3)c(S(=O)(=O)O)c2)C(=O)C1N=Nc1ccccc1C(=O)O` (stereo not drawn) [Example 5, N,N'-Bis(trans-4-{2-[4-(3-methyl-5-oxo-4-(o-carboxyphenylazo)-4,5-dihydro-1.H.-pyrazol-1-yl)-2-sulfo-phenyl]-vinyl}-2-sulfophenyl)-urea tetrasodium salt], the IC50 in series [1] (setting [3]) worked out at 70 nM.

A word on the MTD: it is the largest dose that counted as tolerated. A higher MTD goes with a wide tolerated range.
